Source: the NIST ThermoML archive (doi:10.1021/je3010535)
Values joined by “and” are separate entries in the source; they are usually repeats but may differ in a detail not shown here. Identical values can stand only once. ± gives the expanded uncertainty stated by the source.

Experiment: Henry's Law constant (molality scale); of the first substance listed, at infinite dilution; xn = mol fraction of the nth substance listed
Conditions: Liquid, Chromatography, x1 = 0

Row | Henry's Law constant (273.25 K) [kPa·kg/mol] | Compound | Henry's Law constant (274.15 K) [kPa·kg/mol] | Henry's Law constant (294.65 K) | Henry's Law constant (296.15 K) [kPa·kg/mol] | Henry's Law constant (313.15 K) [kPa·kg/mol] | Henry's Law constant (326.15 K) [kPa·kg/mol] | Henry's Law constant (310.15 K) [kPa·kg/mol] | Henry's Law constant (320.15 K) [kPa·kg/mol] | Henry's Law constant (331.15 K) [kPa·kg/mol] | Henry's Law constant (333.15 K) [kPa·kg/mol] | Henry's Law constant (298.15 K) [kPa·kg/mol] | Henry's Law constant (311.15 K) [kPa·kg/mol] | Henry's Law constant (332.15 K) [kPa·kg/mol]
1 | – | CC(Cl)(Cl)Cl [1,1,1-trichloroethane] + O | 484 ± 150 | 1410 kPa·kg/mol and 1210 kPa·kg/mol | 1430 ± 430 | 2680 ± 800 | 4510 ± 1400 | – | – | – | – | – | – | –
2 | – | ClC(Cl)C(Cl)Cl [1,1,2,2-tetrachloroethane] + O | 3.6 ± 1.1 | 31.2 kPa·kg/mol and 17.9 kPa·kg/mol | 34.4 ± 10 | – | – | 99 ± 30 | 156 ± 47 | 262 ± 79 | – | – | – | –
3 | – | ClC(Cl)=C(Cl)C(Cl)=C(Cl)Cl [1,1,2,3,4,4-hexachloro-1,3-butadiene] + O | 145 | – | 287 | 2180 | 3830 | 366 | – | – | – | – | – | –
4 | – | FC(F)(Cl)C(F)(Cl)Cl [1,1,2-trichloro-1,2,2-trifluoroethane] + O | 1070 ± 320 | – | – | 16800 ± 5000 | 20100 ± 6000 | – | – | – | – | – | – | –
5 | – | CC=C(Cl)Cl [1,1-dichloro-1-propene] + O | 556 ± 170 | 1480 kPa·kg/mol and 1360 kPa·kg/mol | 1460 ± 440 | 3190 ± 960 | 5570 ± 1700 | – | – | – | – | – | – | –
6 | – | CC(Cl)Cl [1,1-dichloroethane] + O | 188 ± 56 | – | – | 953 ± 290 | 1560 ± 470 | – | – | – | – | – | – | –
7 | – | C=C(Cl)Cl [1,1-dichloroethene] + O | 787 ± 240 | – | – | 4460 ± 1300 | 10500 ± 3200 | – | – | – | – | – | – | –
8 | – | Clc1cccc(Cl)c1Cl [1,2,3-trichlorobenzene] + O | 17.8 ± 5.3 | 56.4 kPa·kg/mol and 54.8 kPa·kg/mol | 63 ± 19 | – | – | 124 ± 37 | 199 ± 60 | 324 ± 97 | – | – | – | –
9 | – | ClCC(Cl)CCl [1,2,3-trichloropropane] + O | 2.98 ± 0.89 | 23 kPa·kg/mol and 13.6 kPa·kg/mol | 28.3 ± 8.5 | – | – | 78.2 ± 23 | 113 ± 34 | 208 ± 62 | 370 ± 110 | – | – | –
10 | – | ClCC(Br)CBr (stereo not drawn) [1,2-dibromo-3-chloropropane] + O | 1.28 ± 0.38 | 7.76 kPa·kg/mol and 9.37 kPa·kg/mol | 11.8 ± 3.5 | – | – | 28.1 ± 8.4 | 49.7 ± 15 | 101 ± 30 | 133 ± 40 | – | – | –
11 | – | Clc1ccccc1Cl [1,2-dichlorobenzene] + O | 41.1 ± 12 | 102 kPa·kg/mol and 115 kPa·kg/mol | 119 ± 36 | – | – | 208 ± 62 | 350 ± 100 | 510 ± 150 | – | – | – | –
12 | – | ClCCCl [1,2-dichloroethane] + O | 42.9 ± 13 | 98.2 kPa·kg/mol and 102 kPa·kg/mol | 105 ± 32 | – | – | 211 ± 63 | 389 ± 120 | 517 ± 160 | – | – | – | –
13 | – | CC(Cl)CCl (stereo not drawn) [1,2-dichloropropane] + O | 70.7 ± 21 | 217 kPa·kg/mol and 198 kPa·kg/mol | 225 ± 67 | – | 699 ± 210 | 418 ± 130 | – | 1210 ± 360 | – | – | – | –
14 | – | Cc1cc(C)cc(C)c1 [1,3,5-trimethylbenzene] + O | 115 ± 46 | 304 kPa·kg/mol and 352 kPa·kg/mol | 408 ± 160 | 1330 ± 530 | 2360 ± 940 | 719 ± 290 | – | 1830 ± 730 | – | – | – | –
15 | – | C1COCCO1 [1,4-dioxane] + O | 0.0629 ± 0.019 | 0.482 kPa·kg/mol and 0.35 kPa·kg/mol | 0.419 ± 0.13 | – | – | 0.84 ± 0.25 | 2 ± 0.6 | 3.92 ± 1.2 | – | – | – | –
16 | – | Cc1ccc(C(C)C)cc1 [1-(1-methylethyl)-4-methylbenzene] + O | 157 ± 63 | 389 kPa·kg/mol and 469 kPa·kg/mol | 502 ± 200 | 2150 ± 860 | 3440 ± 1400 | 777 ± 310 | – | 1830 ± 730 | – | – | – | –
17 | – | Cc1cccc2ccccc12 [1-methylnaphthalene] + O | 3.74 ± 1.1 | 23.4 kPa·kg/mol and 13.3 kPa·kg/mol | 27.8 ± 8.3 | – | – | 74 ± 22 | 87.9 ± 26 | 153 ± 46 | 150 ± 45 | – | – | –
18 | – | CC(C)(Cl)Cl [2,2-dichloropropane] + O | 423 ± 170 | – | – | 3280 ± 1300 | 36600 ± 15000 | – | – | – | – | – | – | –
19 | – | CCCCOCCO [2-butoxyethan-1-ol] + O | – | – | – | – | – | – | – | – | – | 0.269 ± 0.081 | 0.904 ± 0.27 | 4.27 ± 1.3
20 | – | Cc1ccccc1Cl [2-chlorotoluene] + O | 90.4 ± 36 | 248 kPa·kg/mol and 316 kPa·kg/mol | 356 ± 140 | 890 ± 360 | 1280 ± 510 | 503 ± 200 | 533 ± 210 | 1040 ± 420 | – | – | – | –
21 | 0.0797 ± 0.032 | CCCCC(CC)CO (stereo not drawn) [2-ethyl-1-hexanol] + O | – | – | – | – | – | – | – | – | – | 1.91 ± 0.76 | 4.09 ± 1.6 | 100 ± 40
22 | – | COC(C)(C)C [2-methoxy-2-methylpropane] + O | 5.5 | – | 58 | – | – | 59 | 368 | 1650 | – | – | – | –
